Experimental data: patent US11000033B2, “Ketone or oxime compound, and herbicide” (NISSAN CHEMICAL CORPORATION, priority 2014, dated 2021)

What was measured:
Format in all cases: in vivo
[1] = system: Echinochloa oryzacola Vasing.; assay: Test Example 1: herbicidal activity, application before weed generation in submerged conditions (symbol A); conditions: application herbicide amount 320 g/ha
Summary of the method: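 Ratings (5: ≥90%, near complete withering; 4: 70–<90%; 3: 40–<70%; 2: 20–<40%; 1: 5–<20%; 0: ≤5%) were assigned 3 weeks after the diluted emulsion was applied to the water surface of freshly sown, submerged pots.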

[2] = system: Echinochloa oryzacola Vasing.; assay: Test Example 2: herbicidal activity, application during weed generation in submerged conditions (symbol A); conditions: Table 23; application herbicide amount 320 g/ha; grade 0-5 by criteria of Test Example 1
Summary of the method: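 Compound was applied as a water-diluted emulsion into the standing water of flooded pots (4 cm) once co-sown weeds reached one to two leaves. Greenhouse temperature was 25° C. to 30° C., soil was alluvial, and each species was rated visually after 3 weeks.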

[3] = system: Echinochloa crus-galli var. crus-galli; assay: Test Example 3: herbicidal effect by foliage application, Wagner pot (symbol H); conditions: application herbicide amount 320 g/ha
Summary of the method: (§1)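 In a shallow-flooded alluvial soil system held at 25–30 °C, plants including rice grew for 14 days and were then sprayed over the foliage with emulsion diluted to a fixed herbicide amount. Visual rating followed at 3 weeks.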

[4] = system: Cyperus difformis; assay: Test Example 3: herbicidal effect by foliage application, Wagner pot (symbol E); conditions: application herbicide amount 320 g/ha
Summary of the method: as §1

[5] = system: Echinochloa crus-galli var. crus-galli; assay: Test Example 4: herbicidal effect by soil treatment (symbol H); conditions: application herbicide amount 320 g/ha
Summary of the method: (§2)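 Seeds were sown in sterilized diluvial soil, covered with about 1.5 cm of soil, and the soil surface was sprayed with a water-diluted emulsion of the compound at a predetermined rate. Plants grew in a greenhouse at 25° C. to 30° C.; effects were scored visually 3 weeks after application.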

[6] = system: Apera spica-venti; assay: Test Example 4: herbicidal effect by soil treatment (symbol L); conditions: application herbicide amount 320 g/ha
Summary of the method: as §2

[7] = system: Amaranthus retroflexus; assay: Test Example 4: herbicidal effect by soil treatment (symbol N); conditions: application herbicide amount 320 g/ha
Summary of the method: as §2

[8] = system: Setaria viridis; assay: Test Example 5: herbicidal effect by foliage application, plastic box (symbol G); conditions: 320 g/ha, 3 weeks after application
Summary of the method: (§3)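 Effect is rated 3 weeks after a foliar spray of water-diluted emulsion concentrate at a predetermined herbicide amount. Plants had grown 14 days in a 25° C. to 30° C. greenhouse from seed in sterilized diluvial soil.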

[9] = system: Apera spica-venti; assay: Test Example 5: herbicidal effect by foliage application, plastic box (symbol L); conditions: 320 g/ha, 3 weeks after application
Summary of the method: as §3

[10] = system: Stellaria media; assay: Test Example 5: herbicidal effect by foliage application, plastic box (symbol P); conditions: 320 g/ha, 3 weeks after application
Summary of the method: as §3

[11] = system: soybean; assay: Test Example 5: effect on crop by foliage application, plastic box (symbol d); conditions: 320 g/ha, 3 weeks after application
Summary of the method: (§4)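 Foliage-application test plants come from spot sowing in sterilized diluvial soil under a soil layer of about 1.5 cm, grown at 25° C. to 30° C. in a greenhouse.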

[12] = system: rice plant; assay: Test Example 5: effect on crop by foliage application, plastic box (symbol b); conditions: 320 g/ha, 3 weeks after application
Summary of the method: as §4

[13] = system: beet; assay: Test Example 5: effect on crop by foliage application, plastic box (symbol f); conditions: 320 g/ha, 3 weeks after application
Summary of the method: as §4

Structure (SMILES)	Herbicidal effect grade, A: Echinochloa oryzacola Vasing. [1]	Herbicidal effect grade, A: Echinochloa oryzacola Vasing. [2]	herbicidal effect on H (Echinochloa crus-galli var. crus-galli), grade 0-5 [3]	herbicidal effect on E, grade 0-5 [4]	H (Echinochloa crus-galli var. crus-galli) herbicidal effect grade [5]	L (Apera spica-venti) herbicidal effect grade [6]	N (Amaranthus retroflexus) herbicidal effect grade [7]	G: Setaria viridis, herbicidal effect grade [8]	L: Apera spica-venti, herbicidal effect grade [9]	P: Stellaria media, herbicidal effect grade [10]	d: soybean, effect on crop grade [11]	b: directly sowed rice plant, effect on crop grade [12]	f: beet, effect on crop grade [13]	further results
CCON=C(C)CC1CC(O)=C(c2c(C)cc(C)cc2C)C1=O (stereo not shown) [1-003]	5 (Herbicidal ratio of 90% or more (almost completely withered))	5 (Herbicidal ratio of 90% or more (almost completely withered))	5 (Herbicidal ratio of 90% or more (almost completely withered))	5 (Herbicidal ratio of 90% or more (almost completely withered))	5 (Herbicidal ratio of 90% or more (almost completely withered))	5 (Herbicidal ratio of 90% or more (almost completely withered))	3 (Herbicidal ratio of 40% or higher and lower than 70%)	5 (Herbicidal ratio of 90% or more (almost completely withered))	5 (Herbicidal ratio of 90% or more (almost completely withered))	2 (Herbicidal ratio of 20% or higher and lower than 40%)	3 (Herbicidal ratio of 40% or higher and lower than 70%)	5 (Herbicidal ratio of 90% or more (almost completely withered))	3 (Herbicidal ratio of 40% or higher and lower than 70%)	–
CON=C(CC1CC(O)=C(c2c(C)cc(-n3cc(Cl)cn3)cc2C)C1=O)C(C)C (stereo not shown) [9-004]	5 (Herbicidal ratio of 90% or more (almost completely withered))	5 (Herbicidal ratio of 90% or more (almost completely withered))	–	–	–	–	–	5 (Herbicidal ratio of 90% or more (almost completely withered))	4 (Herbicidal ratio of 70% or higher and lower than 90%)	2 (Herbicidal ratio of 20% or higher and lower than 40%)	0 (Herbicidal ratio of 5% or lower (almost no effect))	–	0 (Herbicidal ratio of 5% or lower (almost no effect))	H (Echinochloa crus-galli var. crus-galli) herbicidal effect grade ([3]; Table 24): 5 (Herbicidal ratio of 90% or more (almost completely withered)); E herbicidal effect grade ([4]; Table 24): 5 (Herbicidal ratio of 90% or more (almost completely withered)); Herbicidal effect grade, H: Echinochloa crus-galli var. crus-galli [5]: 5 (Herbicidal ratio of 90% or more (almost completely withered)); Herbicidal effect grade, L: Apera spica-venti [6]: 5 (Herbicidal ratio of 90% or more (almost completely withered)); Herbicidal effect grade, N: Amaranthus retroflexus [7]: 0 (Herbicidal ratio of 5% or lower (almost no effect))
CON=C(C)CC1CC(OC(=O)CCC2CCCCC2)=C(c2c(C)cc(C)cc2C)C1=O (stereo not shown) [1-035]	5 (Herbicidal ratio of 90% or more (almost completely withered))	5 (Herbicidal ratio of 90% or more (almost completely withered))	5 (Herbicidal ratio of 90% or more (almost completely withered))	5 (Herbicidal ratio of 90% or more (almost completely withered))	5 (Herbicidal ratio of 90% or more (almost completely withered))	5 (Herbicidal ratio of 90% or more (almost completely withered))	5 (Herbicidal ratio of 90% or more (almost completely withered))	5 (Herbicidal ratio of 90% or more (almost completely withered))	5 (Herbicidal ratio of 90% or more (almost completely withered))	–	4 (Herbicidal ratio of 70% or higher and lower than 90%)	5 (Herbicidal ratio of 90% or more (almost completely withered))	2 (Herbicidal ratio of 20% or higher and lower than 40%)	–
CON=C(C)CC1CC(OC(=O)C(C)(C)OC(C)=O)=C(c2c(C)cc(C)cc2C)C1=O (stereo not shown) [1-034]	5 (Herbicidal ratio of 90% or more (almost completely withered))	5 (Herbicidal ratio of 90% or more (almost completely withered))	5 (Herbicidal ratio of 90% or more (almost completely withered))	5 (Herbicidal ratio of 90% or more (almost completely withered))	5 (Herbicidal ratio of 90% or more (almost completely withered))	5 (Herbicidal ratio of 90% or more (almost completely withered))	5 (Herbicidal ratio of 90% or more (almost completely withered))	5 (Herbicidal ratio of 90% or more (almost completely withered))	5 (Herbicidal ratio of 90% or more (almost completely withered))	–	4 (Herbicidal ratio of 70% or higher and lower than 90%)	5 (Herbicidal ratio of 90% or more (almost completely withered))	4 (Herbicidal ratio of 70% or higher and lower than 90%)	–
CON=C(C)CC1CC(OC(=O)COc2ccc(Cl)cc2Cl)=C(c2c(C)cc(C)cc2C)C1=O (stereo not shown) [1-075]	5 (Herbicidal ratio of 90% or more (almost completely withered))	5 (Herbicidal ratio of 90% or more (almost completely withered))	5 (Herbicidal ratio of 90% or more (almost completely withered))	5 (Herbicidal ratio of 90% or more (almost completely withered))	5 (Herbicidal ratio of 90% or more (almost completely withered))	5 (Herbicidal ratio of 90% or more (almost completely withered))	5 (Herbicidal ratio of 90% or more (almost completely withered))	–	–	–	–	–	–	G: Setaria viridis, herbicidal effect (criteria 0-5) [8]: 5 (Herbicidal ratio of 90% or more (almost completely withered)); L: Apera spica-venti, herbicidal effect (criteria 0-5) [9]: 5 (Herbicidal ratio of 90% or more (almost completely withered)); P: Stellaria media, herbicidal effect (criteria 0-5) [10]: 1 (Herbicidal ratio of 5% or higher and lower than 20%); d: soybean, effect on crop (criteria 0-5) [11]: 1 (Herbicidal ratio of 5% or higher and lower than 20%); b: directly sowed rice plant, effect on crop (criteria 0-5) [12]: 5 (Herbicidal ratio of 90% or more (almost completely withered))
CC(CC1CC(O)=C(c2c(C)cc(C)cc2C)C1=O)=NOCc1ccccc1F (stereo not shown) [1-026]	5 (Herbicidal ratio of 90% or more (almost completely withered))	5 (Herbicidal ratio of 90% or more (almost completely withered))	5 (Herbicidal ratio of 90% or more (almost completely withered))	5 (Herbicidal ratio of 90% or more (almost completely withered))	5 (Herbicidal ratio of 90% or more (almost completely withered))	5 (Herbicidal ratio of 90% or more (almost completely withered))	0 (Herbicidal ratio of 5% or lower (almost no effect))	5 (Herbicidal ratio of 90% or more (almost completely withered))	5 (Herbicidal ratio of 90% or more (almost completely withered))	1 (Herbicidal ratio of 5% or higher and lower than 20%)	0 (Herbicidal ratio of 5% or lower (almost no effect))	5 (Herbicidal ratio of 90% or more (almost completely withered))	–	–
